# What was measured:
# Aβtotal = experiment: Screening for γ-secretase-modulating activity: Aβtotal in supernatant of SKNBE2 cells carrying hAPP 695 wild type (Alphalisa); assay type: cell-based, human; conditions: overnight incubation, Alphalisa on supernatant
# Experimental: (§1) Pharmacology A) Screening of the Compounds of the Invention for γ-Secretase-Modulating Activity
# (§2) Screening was carried out using SKNBE2 human neuroblastoma cells carrying the hAPP 695—wild type, grown in Dulbecco's Modified Eagle's Medium/Nutrient mixture F-12 (DMEM/NUT-mix F-12) (HAM) provided by Invitrogen (cat no. 10371-029) containing 5% Serum/Fe supplemented with 1% non-essential amino acids, 1-glutamine 2 mM, Hepes 15 mM, penicillin 50 U/mL (units/mL) en streptomycin 50 μg/mL. Cells were grown to near confluency.
# (§3) The screening was performed using a modification of the assay as described in Citron et al (1997) Nature Medicine 3: 67. Briefly, cells were plated in a 384-well plate at 10^4 cells/well in Ultraculture (Lonza, BE12-725F) supplemented with 1% glutamine (Invitrogen, 25030-024), 1% non-essential amino acid (NEAA), penicillin 50 U/mL en streptomycin 50 μg/mL in the presence of test compound at different test concentrations. The cell/compound mixture was incubated overnight at 37° C., 5% CO2. The next day the media were assayed by two sandwich immuno-assays, for Aβ42 and Aβtotal.
# (§4) Aβtotal and Aβ42 concentrations were quantified in the cell supernatant using the Aphalisa technology (Perkin Elmer). Alphalisa is a sandwich assay using biotinylated antibody attached to streptavidin coated donorbeads and antibody conjugated to acceptor beads. In the presence of antigen, the beads come into close proximity. The excitation of the donor beads provokes the release of singlet oxygen molecules that trigger a cascade of energy transfer in the acceptor beads, resulting in light emission. To quantify the amount of Aβ42 in the cell supernatant, monoclonal antibody specific to the C-terminus of Aβ42 (JRF/cAβ42/26) was coupled to the receptor beads and biotinylated antibody specific to the N-terminus of Aβ (JRF/AβN/25) was used to react with the donor beads. To quantify the amount of Aβ total in the cell supernatant, monoclonal antibody specific to the N-terminus of Aβ (JRF/AβN/25) was coupled to the receptor beads and biotinylated antibody specific to the mid region of Aβ (biotinylated 4G8) was used to react with the donor beads.
# (§5) To obtain the values reported in Table 3, the data are calculated as percentage of the maximum amount of amyloid Beta 42 measured in the absence of the test compound. The sigmoidal dose response curves were analyzed using nonlinear regression analysis with percentage of the control plotted against the log concentration of the compound. A 4-parameter equation was used to determine the IC50.
# Aβ42 = experiment: Screening for γ-secretase-modulating activity: Aβ42 in supernatant of SKNBE2 cells carrying hAPP 695 wild type (Alphalisa); assay type: cell-based, human; conditions: SKNBE2 human neuroblastoma cells carrying hAPP 695 wild type; overnight incubation; Alphalisa on supernatant
# Experimental: as §1, §2, §3, §4, §5
# [1] = SKNBE2 human neuroblastoma cells carrying hAPP 695 wild type
# [2] = Homo sapiens, SKNBE2, SKNBE2 human neuroblastoma cells carrying hAPP 695 wild type
SMILES,IC50 (Aβtotal; [1]) [µM],IC50 (Aβ42) [µM],IC50 (Aβtotal; [2]) [µM]
"COc1c(C#N)ccc2[nH]c(-c3cn4c(n3)C(c3ccccc3C(F)(F)F)OCC4)cc12 (single isomer, unassigned) [Compound 45, 2-[5,6-dihydro-8-[2-(trifluoromethyl)phenyl]-8H-imidazo[2,1-c][1,4]oxazin-2-yl]-4-methoxy-1H-indole-5-carbonitrile]",> 10,0.372,
"COc1c(C#N)ccc2[nH]c(-c3nc4n(n3)CCOC4c3ccccc3C(F)(F)F)cc12 (single isomer, unassigned) [Compound 57, 2-[5,6-dihydro-8-[2-(trifluoromethyl)phenyl]-8H-[1,2,4]triazolo[5,1-c][1,4]oxazin-2-yl]-4-methoxy-1H-indole-5-carbonitrile]",> 10,0.603,
"Cc1cn(-c2ccc3[nH]c(-c4nc5n(n4)CCCC5c4ccc(F)cc4C)cc3c2)cn1 (single isomer, unassigned) [Compound 76, 8-(4-fluoro-2-methylphenyl)-5,6,7,8-tetrahydro-2-[5-(4-methyl-1H-imidazol-1-yl)-1H-indol-2-yl]-[1,2,4]triazolo[1,5-a]pyridine]",,0.141,> 10
"COc1c(-n2cnc(C)c2)ccc2[nH]c(-c3cn4c(n3)C(c3ccc(F)cc3C)CCC4)cc12 (single isomer, unassigned) [Compound 78, 8-(4-fluoro-2-methylphenyl)-5,6,7,8-tetrahydro-2-[4-methoxy-5-(4-methyl-1H-imidazol-1-yl)-1H-indol-2-yl]-imidazo[1,2-a]pyridine]",,0.03,> 10
"COc1c(-n2cnc(C)c2)ccc2[nH]c(-c3cn4c(n3)C(c3ccc(F)cc3C)CCC4)cc12 (single isomer, unassigned) [Compound 79, 8-(4-fluoro-2-methylphenyl)-5,6,7,8-tetrahydro-2-[4-methoxy-5-(4-methyl-1H-imidazol-1-yl)-1H-indol-2-yl]-imidazo[1,2-a]pyridine]",> 10,0.186,
"COc1ccccc1C1CCCn2nc(-c3cc4cc(-n5cnc(C)c5)ccc4[nH]3)nc21 (single isomer, unassigned) [Compound 80, 5,6,7,8-tetrahydro-8-(2-methoxyphenyl)-2-[5-(4-methyl-1H-imidazol-1-yl)-1H-indol-2-yl]-[1,2,4]triazolo[1,5-a]pyridine]",,0.468,> 10
"COc1ccccc1C1CCCn2nc(-c3cc4cc(-n5cnc(C)c5)ccc4[nH]3)nc21 (single isomer, unassigned) [Compound 81, 5,6,7,8-tetrahydro-8-(2-methoxyphenyl)-2-[5-(4-methyl-1H-imidazol-1-yl)-1H-indol-2-yl]-[1,2,4]triazolo[1,5-a]pyridine]",> 10,0.074,
"COc1c(-n2cnc(C)c2)ccc2[nH]c(-c3nc4n(n3)CCCC4c3ccc(F)cc3C)cc12 (single isomer, unassigned) [Compound 83, 8-(4-fluoro-2-methylphenyl)-5,6,7,8-tetrahydro-2-[4-methoxy-5-(4-methyl-1H-imidazol-1-yl)-1H-indol-2-yl]-[1,2,4]triazolo[1,5-a]pyridine]",2.34,0.014,
"COc1c(-n2cnc(C)c2)ccc2[nH]c(-c3nc4n(n3)CCCC4c3ccc(F)cc3C)cc12 (single isomer, unassigned) [Compound 84, 8-(4-fluoro-2-methylphenyl)-5,6,7,8-tetrahydro-2-[4-methoxy-5-(4-methyl-1H-imidazol-1-yl)-1H-indol-2-yl]-[1,2,4]triazolo[1,5-a]pyridine]",5.37,0.048,
"Cc1cn(-c2cnc3[nH]c(-c4nc5n(n4)CCCC5c4ccc(F)cc4C)cc3c2)cn1 (single isomer, unassigned) [Compound 87, 8-(4-fluoro-2-methylphenyl)-5,6,7,8-tetrahydro-2-[5-(4-methyl-1H-imidazol-1-yl)-1H-pyrrolo[2,3-b]pyridin-2-yl]-[1,2,4]triazolo[1,5-a]pyridine]",> 10,0.447,
"Cc1cn(-c2cnc3[nH]c(-c4nc5n(n4)CCCC5c4ccc(F)cc4C)cc3c2)cn1 (single isomer, unassigned) [Compound 88, 8-(4-fluoro-2-methylphenyl)-5,6,7,8-tetrahydro-2-[5-(4-methyl-1H-imidazol-1-yl)-1H-pyrrolo[2,3-b]pyridin-2-yl]-[1,2,4]triazolo[1,5-a]pyridine]",,0.065,> 10

# The remaining lines, values ahead:
IC50 (Aβtotal; [1]) [µM],IC50 (Aβ42) [µM],IC50 (Aβtotal; [2]) [µM],SMILES
,2.19,> 10,"Cc1cc(F)ccc1C1OCCn2cc(-c3cc4nc(-c5cnn(C)c5)ccc4[nH]3)nc21 (single isomer, unassigned) [Compound 101, 8-(4-fluoro-2-methylphenyl)-5,6-dihydro-2-[5-(1-methyl-1H-pyrazol-4-yl)-1H-pyrrolo[3,2-b]pyridin-2-yl]-8H-imidazo[2,1-c][1,4]oxazine]"
,0.021,> 10,"COc1c(-n2cnc(C)c2)ccc2[nH]c(-c3cn4c(n3)C(c3ccc(F)cc3C)OCC4)cc12 (single isomer, unassigned) [Compound 112, 8-(4-fluoro-2-methylphenyl)-5,6-dihydro-2-[4-methoxy-5-(4-methyl-1H-imidazol-1-yl)-1H-indol-2-yl]-8H-imidazo[2,1-c][1,4]oxazine]"
> 10,0.151,,"COc1c(-n2cnc(C)c2)ccc2[nH]c(-c3cn4c(n3)C(c3ccc(F)cc3C)OCC4)cc12 (single isomer, unassigned) [Compound 113, 8-(4-fluoro-2-methylphenyl)-5,6-dihydro-2-[4-methoxy-5-(4-methyl-1H-imidazol-1-yl)-1H-indol-2-yl]-8H-imidazo[2,1-c][1,4]oxazine]"
> 10,3.8,,"COc1c(C#N)ccc2[nH]c(-c3nc4n(n3)CCOC4c3c(F)cccc3Cl)cc12 (single isomer, unassigned) [Compound 118, 2-[8-(2-chloro-6-fluorophenyl)-5,6-dihydro-8H-[1,2,4]triazolo[5,1-c][1,4]oxazin-2-yl]-4-methoxy-1H-indole-5-carbonitrile]"
> 10,2.82,,"COc1c(C#N)ccc2[nH]c(-c3cn4c(n3)C(c3c(F)cccc3Cl)OCC4)cc12 (single isomer, unassigned) [Compound 123, 2-[8-(2-chloro-6-fluorophenyl)-5,6-dihydro-8H-imidazo[2,1-c][1,4]oxazin-2-yl]-4-methoxy-1H-indole-5-carbonitrile]"
> 10,0.49,,"COc1c(C#N)ccc2[nH]c(-c3cn4c(n3)C(c3cccc(F)c3C(F)(F)F)OCC4)cc12 (single isomer, unassigned) [Compound 132, 2-[8-[3-fluoro-2-(trifluoromethyl)phenyl]-5,6-dihydro-8H-imidazo[2,1-c][1,4]oxazin-2-yl]-4-methoxy-1H-indole-5-carbonitrile]"
> 10,1,,"COc1c(C#N)ccc2[nH]c(-c3nc4n(n3)CCOC4c3cccc(F)c3C(F)(F)F)cc12 (single isomer, unassigned) [Compound 134, 2-[8-[3-fluoro-2-(trifluoromethyl)phenyl]-5,6-dihydro-8H-[1,2,4]triazolo[5,1-c][1,4]oxazin-2-yl]-4-methoxy-1H-indole-5-carbonitrile]"
,0.036,> 10,"COc1c(C#N)ccc2[nH]c(-c3cn4c(n3)C(c3cccc(C)c3F)OCC4)cc12 (single isomer, unassigned) [Compound 135, 2-[8-(2-fluoro-3-methylphenyl)-5,6-dihydro-8H-imidazo[2,1-c][1,4]oxazin-2-yl]-4-methoxy-1H-indole-5-carbonitrile]"
> 10,1.26,,"COc1c(C#N)ccc2[nH]c(-c3cn4c(n3)C(c3cccc(C)c3F)OCC4)cc12 (single isomer, unassigned) [Compound 136, 2-[8-(2-fluoro-3-methylphenyl)-5,6-dihydro-8H-imidazo[2,1-c][1,4]oxazin-2-yl]-4-methoxy-1H-indole-5-carbonitrile]"
> 10,1.86,,"COc1c(C#N)ccc2[nH]c(-c3nc4n(n3)CCOC4c3cccc(C)c3F)cc12 (single isomer, unassigned) [Compound 149, 2-[8-(2-fluoro-3-methylphenyl)-5,6-dihydro-8H-[1,2,4]triazolo[5,1-c][1,4]oxazin-2-yl]-4-methoxy-1H-indole-5-carbonitrile]"
